Experimental data from paper PMC9231222 (Viruses, 2022).
“Also recorded” adds a separate entry of the source.

How the values were obtained:
[1] = Cytotoxicity assay (MTT) in mock-infected MDBK cells; type: cell-based; settings: cattle (Bos taurus); concentration reducing viability of mock-infected MDBK cells by 50%, MTT method
[2] = system: BVDV; test: Antiviral assay: inhibition of BVDV-induced cytopathogenicity in MDBK cells; type: cell-based; settings: Bovine viral diarrhea virus isolates and strains, in Bos taurus, 72 h, read-out: BVDV EC50
[3] = system: BVDV; type: cell-based, Bovine Viral Diarrhoea Virus (BVDV); settings: BVDV incubated with compound at 4 °C for 1 h, then used to infect cells
[4] = system: BVDV; test: Time of drug addition assay in BVDV-infected MDBK cells (plaque reduction titer); type: cell-based, Bovine Viral Diarrhoea Virus (BVDV); settings: along the viral replication cycle (between 2 and 14 h post-infection)

Row | SMILES | CC50 [1] | EC50 [2] | melting point | virucidal activity [3] | antiviral activity, time of drug addition [4]
1 | O=C(Nc1ccc(-c2nc3ccccc3[nH]2)cc1)c1ccc(Cl)cc1 [Compound 1e, N-(4-(1H-Benzo[d]imidazol-2-yl)phenyl)-4-chlorobenzamide] | > 100 µM | > 100 µM | 170.5 °C |  | 
2 | Cc1cc2nc(-c3ccc(NC(=O)c4ccc(Cl)cc4)cc3)[nH]c2cc1C [Compound 7e, N-(4-(5,6-Dimethyl-1H-benzo[d]imidazol-2-yl)phenyl)-4-chlorobenzamide] | > 100 µM | > 100 µM | > 300 °C |  | 
3 | Cc1cc2nc(-c3ccc(NC(=O)c4ccc([N+](=O)[O-])cc4)cc3)[nH]c2cc1C [Compound 7d, N-(4-(5,6-Dimethyl-1H-benzo[d]imidazol-2-yl)phenyl)-4-nitrobenzamide] | > 100 µM | > 100 µM | > 300 °C |  | 
4 | O=C(Nc1ccc(-c2nc3cc(Cl)c(Cl)cc3[nH]2)cc1)c1ccc(Cl)cc1 [Compound 3e, N-(4-(5,6-Dichloro-1H-benzo[d]imidazol-2-yl)phenyl)-4-chlorobenzamide] | 60 µM | > 60 µM | 161 to 162 °C |  | 
5 | O=C(Nc1ccc(-c2nc3cc(F)c(F)cc3[nH]2)cc1)c1ccc([N+](=O)[O-])cc1 [Compound 5d, N-(4-(5,6-Difluoro-1H-benzo[d]imidazol-2-yl)phenyl)-4-nitrobenzamide] | > 100 µM | 3.6 µM | > 300 °C |  | 
6 | O=C(Nc1ccc(-c2nc3cc(F)ccc3[nH]2)cc1)c1ccc([N+](=O)[O-])cc1 [Compound 4d, N-(4-(5-Fluoro-1H-benzo[d]imidazol-2-yl)phenyl)-4-nitrobenzamide] | > 100 µM | 7.9 µM | > 300 °C |  | 
7 | COc1cc(C(=O)Nc2ccc(-c3nc4ccccc4[nH]3)cc2)cc(OC)c1OC [Compound 1c, N-(4-(1H-Benzo[d]imidazol-2-yl)phenyl)-3,4,5-trimethoxybenzamide] | 28.5 µM | 2.2 µM |  |  | 
8 | O=C(Nc1ccc(-c2nc3cc(F)c(F)cc3[nH]2)cc1)c1ccc(Cl)cc1 [Compound 5e, N-(4-(5,6-Difluoro-1H-benzo[d]imidazol-2-yl)phenyl)-4-chlorobenzamide] | > 100 µM | > 100 µM | > 300 °C |  | 
9 | Cc1ccc2nc(-c3ccc(NC(=O)c4ccc([N+](=O)[O-])cc4)cc3)[nH]c2c1 [Compound 6d, N-(4-(5-Methyl-1H-benzo[d]imidazol-2-yl)phenyl)-4-nitrobenzamide] | > 100 µM | > 100 µM |  |  | 
10 | O=C(Nc1ccc(-c2nc3cc(Cl)ccc3[nH]2)cc1)c1ccc([N+](=O)[O-])cc1 [Compound 2d, N-(4-(5-Chloro-1H-benzo[d]imidazol-2-yl)phenyl)-4-nitrobenzamide] | > 100 µM | 1.9 µM | > 300 °C |  | 
11 | NC(=O)c1ncn([C@@H]2O[C@H](CO)[C@@H](O)[C@H]2O)n1 [Ribavirin, ribavirin, reference compound] | > 100 µM | 18 µM |  |  | 
12 | C[C@@]1(O)[C@H](O)[C@@H](CO)O[C@H]1n1cnc2c(=O)[nH]c(N)nc21 [NM 108, 2′-C-methylguanosine, reference compound] | > 100 µM | 1.5 µM |  |  | 
13 | COc1cc(C(=O)Nc2ccc(-c3nc4cc(F)c(F)cc4[nH]3)cc2)cc(OC)c1OC [Compound 5c, N-(4-(5,6-Difluoro-1H-benzo[d]imidazol-2-yl)phenyl)-3,4,5-trimethoxybenzamide] | > 100 µM | 1.4 µM | 285 to 287 °C |  | 
14 | O=C(Nc1ccc(-c2nc3cc(Cl)ccc3[nH]2)cc1)c1ccc(Cl)cc1 [Compound 2e, N-(4-(5-Chloro-1H-benzo[d]imidazol-2-yl)phenyl)-4-chlorobenzamide] | > 100 µM | > 100 µM | > 300 °C |  | 
15 | COc1cc(C(=O)Nc2ccc(-c3nc4cc(C)c(C)cc4[nH]3)cc2)cc(OC)c1OC [Compound 7c, N-(4-(5,6-Dimethyl-1H-benzo[d]imidazol-2-yl)phenyl)-3,4,5-trimethoxybenzamide] | > 100 µM | 0.3 µM | 272 to 274 °C | almost comparable to the untreated but infected ones | 
16 | COc1cc(C(=O)Nc2ccc(-c3nc4cc(C)ccc4[nH]3)cc2)cc(OC)c1OC [Compound 6c, N-(4-(5-Methyl-1H-benzo[d]imidazol-2-yl)phenyl)-3,4,5-trimethoxybenzamide] | > 100 µM | 0.23 µM |  | almost comparable to the untreated but infected ones | 
17 | O=C(Nc1ccc(-c2nc3cc(Cl)c(Cl)cc3[nH]2)cc1)c1ccc([N+](=O)[O-])cc1 [Compound 3d, N-(4-(5,6-Dichloro-1H-benzo[d]imidazol-2-yl)phenyl)-4-nitrobenzamide] | > 100 µM | 53 µM | > 300 °C |  | 
18 | O=C(Nc1ccc(-c2nc3cc(F)ccc3[nH]2)cc1)c1ccc(Cl)cc1 [Compound 4e, N-(4-(5-Fluoro-1H-benzo[d]imidazol-2-yl)phenyl)-4-chlorobenzamide] | > 100 µM | > 100 µM | 138.6 °C |  | 
19 | COc1cc(C(=O)Nc2ccc(-c3nc4cc(Cl)c(Cl)cc4[nH]3)cc2)cc(OC)c1OC [Compound 3c, N-(4-(5,6-Dichloro-1H-benzo[d]imidazol-2-yl)phenyl)-3,4,5-trimethoxybenzamide] | 28 µM | 1.3 µM | 150.6 °C |  | 
20 | COc1cc(C(=O)Nc2ccc(-c3nc4cc(F)ccc4[nH]3)cc2)cc(OC)c1OC [Compound 4c, N-(4-(5-Fluoro-1H-benzo[d]imidazol-2-yl)phenyl)-3,4,5-trimethoxybenzamide] | > 100 µM | 41 µM | 171.8 °C |  | 
21 | COc1cc(C(=O)Nc2ccc(-c3nc4cc(Cl)ccc4[nH]3)cc2)cc(OC)c1OC [Compound 2c, N-(4-(5-Chloro-1H-benzo[d]imidazol-2-yl)phenyl)-3,4,5-trimethoxybenzamide] | 45 µM | 0.09 µM | 286 to 287 °C |  | consistent antiviral activity along the viral replication cycle; also recorded: detectable activity
22 | O=C(Nc1ccc(-c2nc3ccccc3[nH]2)cc1)c1ccc([N+](=O)[O-])cc1 [Compound 1d, N-(4-(1H-Benzo[d]imidazol-2-yl)phenyl)-4-nitrobenzamide] | > 100 µM | > 100 µM | > 300 °C |  | 
23 | Cc1ccc2[nH]c(-c3ccc(NC(=O)c4ccc(Cl)cc4)cc3)nc2c1 [Compound 6e, N-(4-(5-Methyl-1H-benzo[d]imidazol-2-yl)phenyl)-4-chlorobenzamide] | > 100 µM | > 100 µM | > 300 °C |  | 
